{"source": "patent US9359373B1", "about": "“Lipophilic N-substituted norcantharimide derivatives and uses thereof” (priority 2014, dated 2016)", "key": {"[1]": {"tested_on": "BFTC905", "assay": "MTT cell viability, BFTC905", "assay_type": "cell-based, human", "conditions": "Homo sapiens, BFTC-905, 48 hours, Mean ± SD, read-out: Growth Inhibition IC50 BFTC905", "description": "(§1) Cell lines used in the present disclosure include human liver carcinonoma cell line HepG2, human bladder carcinoma cell line BFTC905, human colon carcinoma cell lines HT29 and SW480, and human leukemia cell lines HL60 and Jurkat T, and mouse lymphocytic leukemia cell line L1210. Each cell lines were cultured and maintained in Dulbecco's modified Eagle media (DMEM) or RPMI 1640 medium supplemented with 10% heat inactivated fetal bovine serum (FBS), 1% penicillin/streptomycin, in 5% CO2195% air at 37° C.\n(§2) The absorbance of the solution at 540 nm was measured by spectrophotometer. The IC50 values were defined as the drug concentration that inhibit 50% cell growth by setting the viability of untreated cells as 100%. Values were represented as the mean±SD from at least 3 independent experiments.\n(§3) Effects of the compounds of formula (I) of this disclosure, specifically, NOC15 and NC 15, on HepG2 cells (liver carcinoma), BFTC905 (bladder carcinoma), HT29 (colon carcinoma), SW480 (colon carcinoma) and HL60 (leukemia) were assessed by cell viability analysis in accordance with procedures described above, in which compound 2, and other known anti-cancer agents including 5-FU, cisplatin and doxorubicin were respectively used as positive controls."}, "[2]": {"tested_on": "SW480", "assay": "MTT cell viability, SW480", "assay_type": "cell-based, human", "conditions": "Homo sapiens, SW480, 48 hours, Mean ± SD, read-out: Growth Inhibition IC50 SW480", "description": "as §1, §2, §3"}, "[3]": {"tested_on": "HepG2 cells", "assay": "Apoptotic analysis annexin-V/PI flow cytometry", "assay_type": "cell-based, human", "conditions": "10-60 μM, 48 hours, FIG. 3", "description": "The percentage of apototic cells was determined according to the manufacturer's protocol by using an annexin-V/FITC kit/propidium iodine (PI) flow cytometer. To facilitate the detection of apoptosis, the treated cells were centrifuged for 5 min at a speed of 1,000×g at room temperature, and then resuspended and washed once with 5 mL PBS before being stained with annexin-V/PI (apoptosis detection kit, R&D Systems, Taipei, Taiwan).\nHepG2 cells were treated with 10-60 μM of the test compounds for 48 hours, then cell cycle distribution and apoptosis analysis was analyzed by flow cytometry, with the subG1 phase being stained with propidium idoine (PI). Results are illustrated in FIGS. 2 and 3."}, "[4]": {"tested_on": "human leukemia cells (Jurkat T cells)", "assay": "Cell viability (CCK-8), PMAI activated leukemia Jurkat T cells model", "assay_type": "cell-based", "conditions": "24 hours (NC15: 24 and 48 hours), FIG. 4, FIG. 6", "description": "The cell viability assays were performed in 96-well plates. The 100 μl of cell suspensions (NHL or Jurkat T cells, 5×10^3 cells/well, serum-free medium) were inoculated in the wells and the plates were pre-incubated in the incubator for 24 hours (pre-incubated for 22 hours and stimulated with PMA 5 ng/ml plus ionomycin 250 ng/ml for 2 hours in PMAI-treated groups). Then, various concentrations of norcantharidin (0, 2, 4, 15, 30 and 60 μM) or NOC15 (0, 0.25, 0.5, 1, 2 and 4 μM) were added into the culture media in the wells. After 24 hours of incubation, the cell viability of NHL and Jurkat T cells was measured by cell counting kit-8 (CCK-8, Sigma). The half maximal inhibitory concentrations (IC50) of norcantharidin and NOC15 on Jurkat T cells and NHL cells were calculated.\nIn this example, a model of phorbol 12-myristate 13-acetate plus ionomycin (PMAI) activated leukemia Jurkat T cells model was employed to investigate the effects of the NOC15 on human leukemia cells (Jurkat T cells) and human lymphoblast cells (NHL)."}, "[5]": {"tested_on": "Jurkat T cells", "assay": "Cell cycle distribution by flow cytometry, Jurkat T cells", "assay_type": "cell-based, human", "conditions": "for percentage of cells in subG1 phase: FIG. 5, FIG. 7", "description": "Cultured cells with or without pre-treatment of the compounds of this invention (i.e., norcantharidin, NOC15, or NC15, 10-60 μM for 48 hours) were harvested from the cultured media and fixed by incuating with 75% iced cold ehtanol and kept at −20° C. until analysis. The fixed cells were then washed with PBS, and treated with […] (200 μg/mL, 500 μL) for about 1.5 hour at 37° C. Precipitated cells were collected by centrifugation and re-suspended in a buffer solution containing propidium iodine (PI) (40 μg/ml) and incubated in the dark for 20 min at 20-25° C. before being subject to flow cytometry analysis, where cell numbers at respective cell cycles were determined.\nCell cycle distribution was determined by flow cytometry as described in the “Materials and Methods” section. Results is depicted in FIG. 5.\nIn this example, Jurkat T cells were treated with or without NC15 (2.513 μM) for 24 or 48 hours before being subject to cell cycle analysis. Results are depicted in FIG. 7."}, "[6]": {"tested_on": "HepG2 cells", "assay": "MTT cell viability, HepG2", "assay_type": "cell-based, human", "conditions": "Homo sapiens, Mean ± SD", "description": "as §1, §2, §3\nIn this example, effects of NOC15 or NC15 on HepG2 cells were assessed by cell viability analysis in accordance with procedures described above, in which compound 2 was used as a positive control."}, "[7]": {"tested_on": "HepG2 cells", "assay": "Hoechst 33528 staining, nuclear morphological changes", "assay_type": "cell-based, human", "conditions": "40 μM, 48 hours, FIG. 1", "description": "Staining with Hoechst 33528 was performed according to the method described previously (Huang et al., Cytotechnology 2009, 59, 201-208). Briefly, cells were treated with 40 μM norcantharidin, NOC15, or NC15 for 48 hours, then washed with PBS saline and stained with Hoechst 33528 (Sigma, St. Louis, Mo., USA) at a final concentration of 10 μg/mL. The slides were examined under a fluorescence microscope. Cells with a small nucleus, a high fluorescence intensity (due to chromatin condensation) or nuclear fragmentation were considered apoptotic.\nTo further investigate the role of apoptosis in the cytotoxicity of NOC15 and NC15, HepG2 cells were incubated with compound 2, NOC15 and NC15, respectively, for 48 hours; then were stained with Hoechst 33528 and examined by fluorescence microscope for any topical morphological changes."}}, "note": "Like-named read-outs stand apart in the source and are kept apart here.", "data": [{"smiles": "CC(C)=CCCC(C)=CCCC(C)=CCN1C(=O)C2C3CCC(O3)C2C1=O", "note": "(stereo not drawn) [Compound 18, N-farnesyl-7-oxabicyclo[2.2.1]heptane-2,3-dicarboximide]", "values": [{"measurement": "IC50", "setting": "[1]", "value": "9.3 ± 0.6", "unit": "µM"}, {"measurement": "IC50", "setting": "[2]", "value": "33.1 ± 1", "unit": "µM"}, {"measurement": "percentage of apoptotic cells / cell death", "setting": "[3]", "value": "dose-dependent"}, {"measurement": "cytotoxicity to leukemia Jurkat T cells", "setting": "[4]", "value": "toxic"}, {"measurement": "number of cells in G0/G1 phase", "setting": "[5]; 2.513 μM, 48 hours, vs control, FIG. 7D", "value": "decreased"}, {"measurement": "percentage of cells in subG1 phase", "setting": "[5]; treated 24 hours (NC15 2.513 μM)", "value": "started to increase"}, {"measurement": "percentage of cells in subG1 phase", "setting": "[5]; treated 48 hours (NC15 2.513 μM)", "value": "reached a significant level"}, {"measurement": "IC50", "setting": "[6]; HepG2, 24 h, read-out: Growth Inhibition On Hepatic Cancer Cells IC50 24 hrs", "value": "19.4 ± 2.1", "unit": "µM"}, {"measurement": "IC50", "setting": "[6]; HepG2, 48 h, MTT, 48 hours, read-out: Growth Inhibition IC50 HepG2", "value": "16.4 ± 1.2", "unit": "µM"}, {"measurement": "IC50", "setting": "[6]; HepG2, 48 h, read-out: Growth Inhibition On Hepatic Cancer Cells IC50 48 hrs", "value": "16.4 ± 1.2", "unit": "µM"}, {"measurement": "IC50", "setting": "[6]; HepG2, 72 h, read-out: Growth Inhibition On Hepatic Cancer Cells IC50 72 hrs", "value": "12.8 ± 2.5", "unit": "µM"}, {"measurement": "nuclear morphological changes (apoptosis features)", "setting": "[7]", "value": "Significant morphological features of apotosis"}]}]}
